One series addresses T1, hMAO-A (Homo sapiens, UniProt P21397).
T1 construct: purchased Sigma-Aldrich (Steinheim, Germany)
T1 sequence (P21397 1-527): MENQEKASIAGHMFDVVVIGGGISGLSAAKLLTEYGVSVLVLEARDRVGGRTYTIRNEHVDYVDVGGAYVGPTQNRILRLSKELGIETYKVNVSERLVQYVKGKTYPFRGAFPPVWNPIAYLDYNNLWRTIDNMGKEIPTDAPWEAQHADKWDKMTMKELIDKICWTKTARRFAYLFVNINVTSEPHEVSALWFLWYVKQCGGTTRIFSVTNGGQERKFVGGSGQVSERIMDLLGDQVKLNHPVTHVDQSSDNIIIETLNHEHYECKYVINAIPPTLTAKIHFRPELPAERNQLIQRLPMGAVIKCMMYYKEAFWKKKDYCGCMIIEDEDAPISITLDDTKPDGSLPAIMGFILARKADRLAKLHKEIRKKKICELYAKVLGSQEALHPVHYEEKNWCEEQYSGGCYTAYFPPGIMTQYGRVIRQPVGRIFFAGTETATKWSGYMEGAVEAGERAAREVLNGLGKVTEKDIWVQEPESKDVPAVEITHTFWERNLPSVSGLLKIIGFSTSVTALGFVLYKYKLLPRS
The series is described as follows: MAO-A inhibition assay, fluorometric (Amplex Red / horseradish peroxidase-coupled). The format is biochemical. Particulars: read-out: MAO-A % Inhibition; for inhibition at 1000 µM: 10^−3 M; for inhibition at 100 µM: 10^−4 M. The method, then: A Biotek Precision XS robotic system (USA) was used for all pipetting operations. Measurements were performed with the use of BioTek-Synergy H1 microplate reader (USA) based upon the fluorescence generated (excitation, 535 nm, emission, 587 nm) over a 30 min period, in which the fluorescence increased linearly.
Enzymatic assay was performed according to recent method pronounced by our research group[17]^,[20–22]. Control, blank and all concentrations of obtained compounds were tested in quadruplicate and inhibition percent was calculated with following equation: % Inhibition=(FCt2 − FCt1) − (FIt2 − FIt1)/FCt2 − FCt1 × 100
FCt2: Fluorescence of a control well measured at t2 time, FCt1: Fluorescence of a control well measured at […]: Fluorescence of an inhibitor well measured at t2 time, FIt1: Fluorescence of an inhibitor well measured at t1 time,
The IC50 values were calculated using a dose-response curve achieved by plotting the percentage inhibition versus the log concentration using GraphPad ‘PRISM’ software (version 5.0).
All the obtained benzylamine-sulphonamide derivatives 4a–4u were investigated for their inhibitory activity against MAO isoforms using a previously described in vitro fluorometric method, which is based on the detection of H2O2 in a horseradish peroxidase-coupled reaction using 10-acetyl-3,7-dihydroxyphenoxazine (Amplex Red reagent)[17]^,[20–22].
The assay was carried out in two steps. […].

Series [1] addresses T2, hMAO-B (Homo sapiens, UniProt P27338).
T2 construct: purchased Sigma-Aldrich (Steinheim, Germany)
T2 sequence (P27338 1-520): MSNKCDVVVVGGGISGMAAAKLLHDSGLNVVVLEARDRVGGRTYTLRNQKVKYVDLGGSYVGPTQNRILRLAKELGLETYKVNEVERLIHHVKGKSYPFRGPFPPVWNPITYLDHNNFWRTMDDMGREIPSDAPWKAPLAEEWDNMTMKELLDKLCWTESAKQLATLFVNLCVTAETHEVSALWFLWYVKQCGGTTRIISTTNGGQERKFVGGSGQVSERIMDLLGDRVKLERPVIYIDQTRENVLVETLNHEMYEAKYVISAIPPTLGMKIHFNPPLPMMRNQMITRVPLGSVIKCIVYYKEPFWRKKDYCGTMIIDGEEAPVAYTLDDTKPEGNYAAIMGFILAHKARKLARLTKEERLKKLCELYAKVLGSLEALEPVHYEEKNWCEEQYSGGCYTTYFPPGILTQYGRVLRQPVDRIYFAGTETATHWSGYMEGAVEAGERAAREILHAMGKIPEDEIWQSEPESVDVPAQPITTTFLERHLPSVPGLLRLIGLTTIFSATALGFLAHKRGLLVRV
The series is described as follows: MAO-B inhibition assay, fluorometric (Amplex Red / horseradish peroxidase-coupled).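 For all read-outs here: fluorescence read at Ex 535 nm and Em 587 nm over 30 min, linear phase, inhibition relative to uninhibited control wells, IC50 from log concentration–response curves.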 The format is biochemical. Particulars: for inhibition at 1000 µM: 10^−3 M; for inhibition at 100 µM: 10^−4 M; for inhibition at 10 µM: 10^−5 M; for inhibition at 1 µM: 10^−6 M; for inhibition at 0.1 µM: 10^−7 M; for inhibition at 0.01 µM: 10^−8 M; for inhibition at 0.001 µM: 10^−9 M; for IC50: Table 2, mean ± SD, read-out: IC50 against MAO-B.
Excerpt: FCt2: Fluorescence of a control well measured at t2 time, FCt1: Fluorescence of a control well measured at t2 time, FIt2: Fluorescence of an inhibitor well measured at t2 time, FIt1: Fluorescence of an inhibitor well measured at t1 time,

The target in series [2] is T2, hMAO-B. In words: Enzyme kinetic studies (Lineweaver-Burk plots, secondary plot). The format is biochemical. The method, then: The same materials were used in the MAO inhibition assay. […] All processes were evaluated in quadruplicate. The results were analysed as Lineweaver–Burk plots by means of Microsoft Office Excel 2013. The […] of the Lineweaver–Burk plots were replotted versus the inhibitor concentration, and the Ki values were determined from the x-axis intercept as −Ki.
Enzyme kinetics studies were performed to determine the mechanism of hMAO-B inhibition by using a procedure similar to that of the MAO inhibition assay. […] In order to estimate the type of inhibition of these compounds, linear Lineweaver-Burk graphs were used. Substrate velocity curves in the absence and presence of compounds 4i and 4t were recorded. […] In each case, the initial velocity measurements were obtained at different substrate (tyramine) concentrations ranging from 20 μM to 0.625 μM.
The type of inhibition can be determined as either reversible or irreversible by using the Lineweaver-Burk plots. The reversible inhibition type can be classified as mixed-type, uncompetitive, competitive, or non-competitive[17]^,[20–22]. […] Competitive inhibition is seen if the lines intersect on the y-axis, and the slopes and x-intercepts are different. On the contrary, non-competitive inhibition has the opposite result: the plotted lines have the same x-intercept but there are diverse slopes and y-intercepts.

The nature of a further series: Cytotoxicity MTT assay. The format is cell-based, mouse. To be noted: mouse, NIH/3T3 mouse embryonic fibroblast cells, read-out: IC50 NIH/3T3 cell line. The method, then: (§1) The NIH/3T3 mouse embryonic fibroblast cell line (ATCC®CRL-1658 ™, London, UK) was used for cytotoxicity assays. The incubation period of NIH/3T3 cells was based on the supplier's recommendation. NIH/3T3 cells were seeded at 1 × 10^4 cells into each well of 96-well plates. MTT assay was carried out in accordance with the standards previously described manner[23]^,[24]. The compounds were tested between 1 and 0.000316 mM concentrations.

For series [3], the system named is NIH/3T3 mouse embryonic fibroblast cell line. In words: Cytotoxicity MTT assay. The class given is cell-based. Particulars: NIH3T3 cells. The method, then: as §1

The inhibition is the change of the read-out against control, counted positive when it falls. As usually defined, the melting point is the temperature of the solid-liquid transition. Broadly, the Ki is a measure of affinity in units of concentration, obtained from inhibition or displacement.

Each structure is given as a SMILES string. “Also recorded” adds a separate entry of the source.

`Cc1nnc(SCC(=O)N(Cc2ccccc2)c2ccc(S(N)(=O)=O)cc2)s1` [Compound 4c, N-Benzyl-2-((5-methyl-1,3,4-thiadiazol-2-yl)thio)-N-(4-sulfamoylphenyl)acetamide]: the melting point fell in the range of 164 to 166 °C. In addition, on hMAO-A, the inhibition at 1000 µM came to 40.6 ± 0.749% and the inhibition at 100 µM stood at 24.1 ± 0.61%. Besides, at hMAO-B [1], the inhibition at 1000 µM amounted to 91.1 ± 1.25% and the inhibition at 100 µM worked out at 48.3 ± 0.855%.
`NS(=O)(=O)c1ccc(N(Cc2ccccc2)C(=O)CSc2nc3ccccc3o2)cc1` [Compound 4g, 2-(Benzoxazol-2-ylthio)-N-benzyl-N-(4-sulfamoylphenyl)acetamide] showed a melting point of 82 to 84 °C. At hMAO-A, the inhibition at 1000 µM is 47.2 ± 0.979% and the inhibition at 100 µM worked out at 32.2 ± 0.621%. At hMAO-B [1], at 1000 µM the inhibition was 94.7 ± 1.34% and the inhibition at 100 µM was 47.3 ± 0.963%.
The matching figures for `Cn1ccnc1SCC(=O)N(Cc1ccccc1)c1ccc(S(N)(=O)=O)cc1` [Compound 4a, N-Benzyl-2-((1-methyl-1H-imidazol-2-yl)thio)-N-(4-sulfamoylphenyl)acetamide]: 137 to 139 °C, 35.1 ± 0.989%, 26.5 ± 0.856%, 92.3 ± 1.11% and 47 ± 0.958%.
The corresponding values for `Cc1ccc(CN(C(=O)CSc2nc3ccccc3o2)c2ccc(S(N)(=O)=O)cc2)cc1` [Compound 4r, 2-(Benzoxazol-2-ylthio)-N-(4-methylbenzyl)-N-(4-sulfamoylphenyl)acetamide] are 148 to 150 °C, 42.4 ± 0.821%, 32.7 ± 0.697%, 67.5 ± 0.957% and 33.1 ± 0.798%.
The corresponding values for `NS(=O)(=O)c1ccc(N(Cc2ccccc2)C(=O)CSc2nc3ccccc3s2)cc1` [Compound 4h, 2-(Benzothiazol-2-ylthio)-N-benzyl-N-(4-sulfamoylphenyl)acetamide] are 88 to 90 °C, 39.1 ± 0.821%, 20.3 ± 0.608%, 96.2 ± 1.1% and 48.8 ± 0.879%.
Compound `Cn1cnnc1SCC(=O)N(Cc1ccccc1)c1ccc(S(N)(=O)=O)cc1` [Compound 4b, N-Benzyl-2-((4-methyl-4H-1,2,4-triazol-3-yl)thio)-N-(4-sulfamoylphenyl)acetamide] gave a melting point of 201 to 203 °C. For the same compound, on hMAO-A, the inhibition at 1000 µM was found to be 37.6 ± 0.714% and the inhibition at 100 µM is 20.1 ± 0.621%. Further, at hMAO-B [1], the inhibition at 1000 µM came to 90.3 ± 1.3%, the inhibition at 100 µM came out at 86.3 ± 1.29%, 10 µM produced 82.5 ± 1.11% inhibition and testing at 1 µM gave an inhibition of 76.9 ± 1.27%. At hMAO-B [1], the inhibition at 0.1 µM was determined as 45.3 ± 0.974%, the inhibition at 0.01 µM amounted to 32.6 ± 0.728%, the inhibition at 0.001 µM is 20.4 ± 0.683% and the IC50 worked out at 0.188 ± 0.008 µM.
Compound `Cc1ccc(CN(C(=O)CSc2ccccn2)c2ccc(S(N)(=O)=O)cc2)cc1` [Compound 4p, N-(4-Methylbenzyl)-2-(pyridin-2-ylthio)-N-(4-sulfamoylphenyl)acetamide] yielded a melting point of 121 to 123 °C. Besides, at hMAO-A, the inhibition at 1000 µM was 45.2 ± 0.971% and the inhibition at 100 µM was 24.9 ± 0.792%. At hMAO-B [1], this compound showed an inhibition at 1000 µM of 70.5 ± 1.07% and an inhibition at 100 µM of 35.6 ± 0.622%.
Compound `NS(=O)(=O)c1ccc(N(Cc2ccccc2)C(=O)CSc2nc3cc(Cl)ccc3s2)cc1` [Compound 4i, N-Benzyl-2-((5-chlorobenzothiazol-2-yl)thio)-N-(4-sulfamoylphenyl)acetamide] showed a melting point of 114 to 116 °C. Besides, at hMAO-A, the inhibition at 1000 µM stood at 56.3 ± 0.996% and the inhibition at 100 µM is 40.5 ± 0.782%. At hMAO-B [1], this compound gave an inhibition at 1000 µM of 94.9 ± 1.41%, an inhibition at 100 µM of 91.8 ± 1.26%, an inhibition at 10 µM of 78.6 ± 1.11% and an inhibition at 1 µM of 72.5 ± 1.11%. At hMAO-B [1], the inhibition at 0.1 µM is 65.2 ± 0.985%, 0.01 µM produced 46.5 ± 0.892% inhibition, testing at 0.001 µM gave an inhibition of 24.5 ± 0.627% and the IC50 worked out at 0.041 ± 0.001 µM. Besides, the type of inhibition entry at hMAO-B [2] (Lineweaver-Burk plot) was “reversible and non-competitive”. Moreover, the Ki at hMAO-B [2] (substrate tyramine, secondary plot, read-out: Ki, steady-state inhibition constant) turned out to be 0.036 µM. Besides, the IC50 in “Cytotoxicity MTT assay” is over 1000 µM. Also, the “cytotoxicity (in words)” value in series [3] is reported as “non-toxic; also recorded: non-cytotoxic at their effective concentrations”.
For `Cc1ccc(CN(C(=O)CSc2nc3ccccc3s2)c2ccc(S(N)(=O)=O)cc2)cc1` [Compound 4s, 2-(Benzothiazol-2-ylthio)-N-(4-methylbenzyl)-N-(4-sulfamoylphenyl)acetamide], the melting point was in the range of 170 to 172 °C. In addition, at hMAO-A, the inhibition at 1000 µM is 38.2 ± 0.734% and the inhibition at 100 µM worked out at 33 ± 0.697%. Besides, on hMAO-B [1], testing at 1000 µM gave an inhibition of 72.7 ± 1% and the inhibition at 100 µM was 40.3 ± 0.835%.
On to `Cc1ccc(CN(C(=O)CSc2nnc(C)s2)c2ccc(S(N)(=O)=O)cc2)cc1` [Compound 4m, 2-((5-Methyl-1,3,4-thiadiazol-2-yl)thio)-N-(4-methylbenzyl)-N-(4-sulfamoylphenyl)acetamide], for which the melting point was in the range of 178 to 180 °C. In addition, at hMAO-A, the inhibition at 1000 µM came to 37.4 ± 0.85% and the inhibition at 100 µM amounted to 31.1 ± 0.729%. In addition, on hMAO-B [1], 1000 µM produced 76.3 ± 1% inhibition and the inhibition at 100 µM stood at 40.1 ± 0.799%.
`Cc1ccc(CN(C(=O)CSc2nncn2C)c2ccc(S(N)(=O)=O)cc2)cc1` [Compound 4l, 2-((4-Methyl-4H-1,2,4-triazol-3-yl)thio)-N-(4-methylbenzyl)-N-(4-sulfamoylphenyl)acetamide] showed a melting point of 229 to 231 °C. At hMAO-A, the inhibition at 1000 µM is 42.3 ± 0.63% and the inhibition at 100 µM is 25.2 ± 0.712%. Besides, at hMAO-B [1], the inhibition at 1000 µM was found to be 74.2 ± 1.05% and the inhibition at 100 µM is 43.8 ± 0.882%.

The record behind these values is publication PMC7821958, “Synthesis, in vitro enzyme activity and molecular docking studies of new benzylamine-sulfonamide derivatives as selective MAO-B inhibitors” (Journal of Enzyme Inhibition and Medicinal Chemistry, 2020).
